Calls of active or inactive are those of the source. No cut-off for these calls is given here.
Columns and labels:
D(2) dopamine receptor = D(2) dopamine receptor (Rattus norvegicus, UniProt P61169); assay: Displacement of [3H]raclopride from dopamine D2 receptor in Sprague-Dawley rat striatal membranes after 30 mins; design: species or system Sprangue-Dawley, Striatum, Membrane
[1] = target: Neuronal acetylcholine receptor; alpha4/beta2 (Rattus norvegicus, UniProt P09483+P12390); assay: Displacement of [3H]epibatidine from immunoimmobilized alpha4beta2 nAChR in Sprague-Dawley rat striatal membranes by liquid scintillation counting; design: species or system Sprangue-Dawley, Striatum, Membrane
Neuronal acetylcholine receptor; alpha4/beta2 (Rattus norvegicus, UniProt P09483+P12390), sequence (P09483 whole entry): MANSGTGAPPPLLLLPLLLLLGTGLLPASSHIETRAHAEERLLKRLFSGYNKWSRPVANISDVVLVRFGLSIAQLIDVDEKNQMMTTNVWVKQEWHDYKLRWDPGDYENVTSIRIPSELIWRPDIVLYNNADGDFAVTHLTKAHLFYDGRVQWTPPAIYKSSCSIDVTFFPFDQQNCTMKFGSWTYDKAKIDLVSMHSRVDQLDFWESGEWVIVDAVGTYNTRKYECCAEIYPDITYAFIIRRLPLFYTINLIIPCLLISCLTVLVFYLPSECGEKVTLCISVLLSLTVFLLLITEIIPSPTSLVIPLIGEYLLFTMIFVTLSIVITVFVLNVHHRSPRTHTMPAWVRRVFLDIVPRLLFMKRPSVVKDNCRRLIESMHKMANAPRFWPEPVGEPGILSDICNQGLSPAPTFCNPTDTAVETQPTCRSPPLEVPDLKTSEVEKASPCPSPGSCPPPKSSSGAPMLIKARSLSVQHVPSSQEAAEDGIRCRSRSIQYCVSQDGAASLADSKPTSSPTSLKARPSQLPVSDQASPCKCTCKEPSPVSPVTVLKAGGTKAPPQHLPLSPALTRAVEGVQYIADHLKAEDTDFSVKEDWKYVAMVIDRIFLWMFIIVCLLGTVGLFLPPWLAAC
Neuronal acetylcholine receptor; alpha4/beta2 (Rattus norvegicus, UniProt P09483+P12390), sequence (P12390 whole entry): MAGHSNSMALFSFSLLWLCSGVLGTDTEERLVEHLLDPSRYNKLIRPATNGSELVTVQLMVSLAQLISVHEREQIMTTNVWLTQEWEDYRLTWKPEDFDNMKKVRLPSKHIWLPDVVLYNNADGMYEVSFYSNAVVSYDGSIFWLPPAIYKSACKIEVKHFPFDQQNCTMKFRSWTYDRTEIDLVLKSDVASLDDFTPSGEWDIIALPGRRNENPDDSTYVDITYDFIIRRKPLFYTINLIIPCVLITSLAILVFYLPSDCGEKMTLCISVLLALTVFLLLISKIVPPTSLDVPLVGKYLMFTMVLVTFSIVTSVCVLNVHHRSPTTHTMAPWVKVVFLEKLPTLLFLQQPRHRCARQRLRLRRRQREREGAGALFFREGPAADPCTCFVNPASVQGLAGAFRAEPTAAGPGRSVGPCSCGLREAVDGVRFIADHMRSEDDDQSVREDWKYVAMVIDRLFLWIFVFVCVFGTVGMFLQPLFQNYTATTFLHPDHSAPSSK

[2] = target: Neuronal acetylcholine receptor subunit alpha-7 (Rattus norvegicus, UniProt Q05941); assay: Displacement of [125I]alpha-bungarotoxin from alpha7 nAChR in Sprague-Dawley rat hippocampus membrane homogenates by gamma counting; design: species or system Sprangue-Dawley
Neuronal acetylcholine receptor subunit alpha-7, sequence (Q05941 whole entry): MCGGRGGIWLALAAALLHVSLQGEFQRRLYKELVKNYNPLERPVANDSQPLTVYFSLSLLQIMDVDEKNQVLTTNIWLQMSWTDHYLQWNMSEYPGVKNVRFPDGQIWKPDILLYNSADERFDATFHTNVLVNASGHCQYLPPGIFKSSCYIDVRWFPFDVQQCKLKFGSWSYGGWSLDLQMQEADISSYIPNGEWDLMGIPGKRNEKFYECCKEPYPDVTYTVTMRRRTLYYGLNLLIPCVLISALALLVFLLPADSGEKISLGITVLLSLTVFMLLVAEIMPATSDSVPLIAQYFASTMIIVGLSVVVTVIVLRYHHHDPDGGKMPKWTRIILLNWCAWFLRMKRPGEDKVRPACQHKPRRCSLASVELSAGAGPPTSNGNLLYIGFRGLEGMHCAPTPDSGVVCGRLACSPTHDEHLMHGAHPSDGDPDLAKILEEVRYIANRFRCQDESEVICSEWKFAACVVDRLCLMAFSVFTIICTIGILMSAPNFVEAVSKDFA

[3] = target: Neuronal acetylcholine receptor; alpha4/beta2 (Rattus norvegicus) (UniProt P09483+P12390); assay: Ratio of NHNB Ki to compound Ki for immunoimmobilized alpha4beta2 nAChR in Sprague-Dawley rat striatal membranes; conditions: Sprangue-Dawley
[4] = target: Neuronal acetylcholine receptor subunit alpha-6/beta-3 (Rattus norvegicus) (UniProt P12391+P43143); assay: Ratio of NHNB Ki to compound Ki for immunoimmobilized alpha6beta2 nAChR in Sprague-Dawley rat striatal membranes; conditions: Sprangue-Dawley
D(3) dopamine receptor = D(3) dopamine receptor (Homo sapiens, UniProt P35462); assay: Displacement of [3H]raclopride from dopamine D3 receptor (unknown origin) expressed in HEK293 cells after 30 mins; assay type: cell-based
D(3) dopamine receptor, sequence (P35462 whole entry): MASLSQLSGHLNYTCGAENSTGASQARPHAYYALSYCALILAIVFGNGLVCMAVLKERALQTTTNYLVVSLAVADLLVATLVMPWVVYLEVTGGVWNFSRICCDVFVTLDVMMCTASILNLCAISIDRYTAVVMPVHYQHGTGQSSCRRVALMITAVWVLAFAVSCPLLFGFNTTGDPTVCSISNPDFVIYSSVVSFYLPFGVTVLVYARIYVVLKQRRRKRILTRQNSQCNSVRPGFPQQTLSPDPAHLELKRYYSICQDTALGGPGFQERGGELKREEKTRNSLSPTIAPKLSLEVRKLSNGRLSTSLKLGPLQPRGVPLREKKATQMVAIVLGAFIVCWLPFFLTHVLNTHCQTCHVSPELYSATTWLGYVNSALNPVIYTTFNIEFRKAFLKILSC

[5] = target: T1, Neuronal acetylcholine receptor; alpha4/beta2 (Homo sapiens, UniProt P17787+P43681); assay: Partial agonist activity at human alpha4beta2 nAChR expressed in HEK293 cells assessed as inward current at holding potential of -70 mV by patch clamp technique relative to acetylcholine; assay type: cell-based; design: concentration or dose not given beside the values
T1 sequence (P17787 whole entry): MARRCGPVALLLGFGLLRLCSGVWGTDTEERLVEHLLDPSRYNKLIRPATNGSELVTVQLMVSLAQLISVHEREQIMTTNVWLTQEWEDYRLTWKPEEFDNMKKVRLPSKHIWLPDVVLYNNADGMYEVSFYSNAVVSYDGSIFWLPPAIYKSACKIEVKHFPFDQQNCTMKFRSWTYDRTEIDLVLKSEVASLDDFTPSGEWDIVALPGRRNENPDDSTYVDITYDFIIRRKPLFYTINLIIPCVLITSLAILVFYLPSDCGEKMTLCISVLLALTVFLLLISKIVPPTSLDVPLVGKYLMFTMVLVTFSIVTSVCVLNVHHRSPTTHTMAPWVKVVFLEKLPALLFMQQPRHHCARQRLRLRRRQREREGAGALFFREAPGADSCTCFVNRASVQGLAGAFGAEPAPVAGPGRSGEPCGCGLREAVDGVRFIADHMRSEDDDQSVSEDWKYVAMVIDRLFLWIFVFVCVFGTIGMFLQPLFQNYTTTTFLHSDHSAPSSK
T1 sequence (P43681 whole entry): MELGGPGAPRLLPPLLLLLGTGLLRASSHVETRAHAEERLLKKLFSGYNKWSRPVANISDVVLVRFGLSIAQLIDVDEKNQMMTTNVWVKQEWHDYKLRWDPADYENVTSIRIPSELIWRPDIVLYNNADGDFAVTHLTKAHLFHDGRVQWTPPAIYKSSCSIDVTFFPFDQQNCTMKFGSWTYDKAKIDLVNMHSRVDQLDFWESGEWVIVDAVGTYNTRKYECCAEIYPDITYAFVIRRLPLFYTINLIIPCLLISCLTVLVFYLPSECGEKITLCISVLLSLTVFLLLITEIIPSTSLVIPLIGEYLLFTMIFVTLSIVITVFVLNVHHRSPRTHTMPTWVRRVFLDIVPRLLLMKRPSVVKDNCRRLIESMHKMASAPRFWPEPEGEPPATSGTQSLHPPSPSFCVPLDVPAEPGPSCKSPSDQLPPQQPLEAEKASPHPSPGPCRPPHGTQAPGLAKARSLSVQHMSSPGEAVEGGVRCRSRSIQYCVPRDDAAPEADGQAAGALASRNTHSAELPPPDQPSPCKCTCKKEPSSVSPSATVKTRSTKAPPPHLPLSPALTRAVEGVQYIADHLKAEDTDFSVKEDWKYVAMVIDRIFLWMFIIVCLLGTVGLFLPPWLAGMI

Rattus norvegicus [6] = species: Rattus norvegicus; assay: Agonist activity at nAChR in Sprague-Dawley rat striatal slices assessed as induction of [3H]-dopamine release at 10 uM; conditions: Sprangue-Dawley
Rattus norvegicus [7] = species: Rattus norvegicus; assay: Antagonist activity at nAChR in Sprague-Dawley rat striatal slices assessed as inhibition of nicotine-induced [3H]-dopamine release at 5 uM; conditions: Sprangue-Dawley
[8] = target: Mitogen-activated protein kinase; ERK1/ERK2 (Homo sapiens) (UniProt P27361+P28482); assay: Induction of ERK1/2 phosphorylation in human HEK293 cells at 10 uM after 5 mins by Western blotting; assay type: cell-based
Mitogen-activated protein kinase; ERK1/ERK2 (Homo sapiens), sequence (P27361 whole entry, looked up): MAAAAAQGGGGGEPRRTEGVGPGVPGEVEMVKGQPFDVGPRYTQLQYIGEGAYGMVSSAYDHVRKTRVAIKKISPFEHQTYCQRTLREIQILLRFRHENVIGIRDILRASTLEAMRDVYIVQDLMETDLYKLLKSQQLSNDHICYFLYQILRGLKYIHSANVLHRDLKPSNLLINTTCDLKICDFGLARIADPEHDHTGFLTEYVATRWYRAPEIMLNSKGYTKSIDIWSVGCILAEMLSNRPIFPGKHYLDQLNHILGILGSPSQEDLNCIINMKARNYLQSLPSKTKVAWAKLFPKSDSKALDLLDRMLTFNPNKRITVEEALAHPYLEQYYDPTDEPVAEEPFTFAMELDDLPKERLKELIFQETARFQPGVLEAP
Mitogen-activated protein kinase; ERK1/ERK2 (Homo sapiens), sequence (P28482 whole entry, looked up): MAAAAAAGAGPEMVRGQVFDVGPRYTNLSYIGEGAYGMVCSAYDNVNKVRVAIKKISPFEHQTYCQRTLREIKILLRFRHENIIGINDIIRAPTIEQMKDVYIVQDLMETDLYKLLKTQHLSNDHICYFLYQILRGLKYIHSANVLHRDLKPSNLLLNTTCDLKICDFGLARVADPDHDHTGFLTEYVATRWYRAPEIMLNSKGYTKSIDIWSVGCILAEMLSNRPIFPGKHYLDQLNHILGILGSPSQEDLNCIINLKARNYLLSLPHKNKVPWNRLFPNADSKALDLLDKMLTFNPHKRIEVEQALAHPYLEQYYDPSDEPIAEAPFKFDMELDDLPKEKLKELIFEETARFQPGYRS

[9] = target: T1, Neuronal acetylcholine receptor; alpha4/beta2; assay: Agonist activity at alpha4beta2 nAChR (unknown origin) expressed in HEK293 cells assessed as increase of ERK1/2 phosphorylation at 10 uM after 5 mins by Western blotting; assay type: cell-based
[10] = target: T1, Neuronal acetylcholine receptor; alpha4/beta2; assay: Antagonist activity at alpha4beta2 nAChR (unknown origin) expressed in HEK293 cells assessed as reduction of nicotine-induced ERK1/2 phosphorylation at 10 uM treated 30 mins before nicotine addition by Western blotting; assay type: cell-based
[11] = Antagonist activity at nAChR in Sprague-Dawley rat striatal slices assessed as inhibition of nicotine-induced [3H]-dopamine release; conditions: Sprangue-Dawley
[12] = target: T1, Neuronal acetylcholine receptor; alpha4/beta2; assay: Binding affinity to alpha4beta2 nAChR (unknown origin); assay type: protein-complex assay
[13] = target: T1, Neuronal acetylcholine receptor; alpha4/beta2; assay: Antagonist activity at human alpha4beta2 nAChR expressed in HEK293 cells assessed as inhibition of acetylcholine-induced inward current at holding potential of -70 mV by patch clamp technique; assay type: cell-based
Rattus norvegicus [14] = species: Rattus norvegicus; assay: Agonist activity at nAChR in Sprague-Dawley rat striatal slices assessed as induction of [3H]-dopamine release; conditions: Sprangue-Dawley
Rattus norvegicus [15] = species: Rattus norvegicus; assay: Antagonist activity at nAChR in Sprague-Dawley rat striatal slices assessed as inhibition of nicotine-induced [3H]-dopamine release at 10 uM; conditions: Sprangue-Dawley
Rattus norvegicus [16] = species: Rattus norvegicus; assay: Agonist activity at nAChR in Sprague-Dawley rat striatal slices assessed as induction of [3H]-dopamine release at 25 uM; conditions: Sprangue-Dawley
[17] = target: D(2) dopamine receptor (Homo sapiens) (UniProt P14416); assay: Partial agonist activity at dopamine D2 receptor (unknown origin) expressed in HEK293 cells assessed as reduction of quinpirole-induced ERK1/2 phosphorylation at 10 uM treated 30 mins before quinpirole addition by Western blotting; assay type: cell-based; design: scale not given: the % may be the effect or the level left
D(2) dopamine receptor (Homo sapiens), sequence (P14416 whole entry): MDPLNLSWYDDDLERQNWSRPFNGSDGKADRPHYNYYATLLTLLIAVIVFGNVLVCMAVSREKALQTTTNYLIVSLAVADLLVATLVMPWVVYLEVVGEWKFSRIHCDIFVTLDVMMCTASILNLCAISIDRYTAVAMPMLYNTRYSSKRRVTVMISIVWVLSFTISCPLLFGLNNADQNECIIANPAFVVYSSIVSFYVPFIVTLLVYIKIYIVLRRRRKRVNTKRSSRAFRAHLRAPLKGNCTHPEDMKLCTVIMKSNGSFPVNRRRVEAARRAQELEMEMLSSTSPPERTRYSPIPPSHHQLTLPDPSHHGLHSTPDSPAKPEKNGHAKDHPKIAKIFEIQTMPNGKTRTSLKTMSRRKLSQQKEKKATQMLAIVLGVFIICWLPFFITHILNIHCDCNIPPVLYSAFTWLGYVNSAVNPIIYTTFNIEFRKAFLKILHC

D(2) dopamine receptor, sequence (P61169 whole entry): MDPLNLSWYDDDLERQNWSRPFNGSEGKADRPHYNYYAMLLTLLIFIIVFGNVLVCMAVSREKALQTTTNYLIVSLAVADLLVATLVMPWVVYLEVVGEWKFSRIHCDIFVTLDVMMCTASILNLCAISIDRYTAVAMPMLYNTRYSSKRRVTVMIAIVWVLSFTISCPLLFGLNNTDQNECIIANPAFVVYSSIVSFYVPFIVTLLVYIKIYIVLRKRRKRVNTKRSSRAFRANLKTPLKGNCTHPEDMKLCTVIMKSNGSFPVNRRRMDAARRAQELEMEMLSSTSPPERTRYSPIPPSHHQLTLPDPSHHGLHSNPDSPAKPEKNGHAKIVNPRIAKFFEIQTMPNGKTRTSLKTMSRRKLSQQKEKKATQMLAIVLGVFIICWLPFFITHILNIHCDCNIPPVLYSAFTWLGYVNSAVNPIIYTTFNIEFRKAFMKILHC

| Compound | Ki (D(2) dopamine receptor) [nM] | Ki [1] [nM] | Ki [2] [nM] | Ki (D(3) dopamine receptor) [nM] | Activity [5] [%] | Activity [8] | Activity [9] | inhibition [10] [%] | IC50 [11] [nM] | IC50 [13] [nM] | Activity (Rattus norvegicus [14]) | further results |
| --- | --- | --- | --- | --- | --- | --- | --- | --- | --- | --- | --- | --- |
| CN1CCC[C@H]1c1ccc[n+](CCCCCCCCCCCCNCC2CCc3ccc(O)cc3O2)c1 (mixture of isomers) | 20 | 2750 | 65000 | 9.9 | 8.3 | inactive | inactive | 57 | – | – | – | Ratio Ki [3]: 43; Ratio Ki [4]: 30; Activity (Rattus norvegicus [6]): Active; inhibition (Rattus norvegicus [7]): 10% |
| CN1CCC[C@H]1c1cccnc1 | – | – | – | – | – | – | Active | – | – | – | – | – |
| CNC1(C)C2CCC(C2)C1(C)C (stereo not given) [MECAMYLAMINE] | – | – | – | – | – | – | – | – | 300 | – | – | – |
| CCCCCCCCCC[n+]1cccc([C@@H]2CCCN2C)c1 | – | 8690 | 84000 | – | 1.3 | – | – | – | – | 200 | Active | Ki [12]: 0.09 nM; inhibition (Rattus norvegicus [15]): inactive |
| CN1CCC[C@H]1c1ccc[n+](CCCCCNCC2CCc3ccc(O)cc3O2)c1 (mixture of isomers) | 120 | 2270 | 11000 | 43 | 13 | inactive | inactive | 55 | 2300 | 200 | inactive | Ratio Ki [3]: 43; Ratio Ki [4]: 30 |
| CCCNCC1CCc2ccc(O)cc2O1 (stereo not given) | – | > 100000 | > 100000 | – | – | – | – | – | – | – | – | – |
| CN1CCC[C@H]1c1ccc[n+](CCCCCCCCCCNCC2CCc3ccc(O)cc3O2)c1 (mixture of isomers) | 14 | 1060 | 43000 | 3.3 | 4 | inactive | inactive | 57 | 10400 | 100 | – | Ratio Ki [3]: 43; Ratio Ki [4]: 30 |
| CCCCCCNCC1CCc2ccc(O)cc2O1 (stereo not given) | – | > 100000 | > 100000 | – | – | – | – | – | – | – | – | – |
| CO[C@H]1CC=C2CCN3CCC4=C(CC(=O)OC4)[C@]23C1 | – | – | – | – | – | – | – | – | 2200 | – | – | – |
| CCCCC[n+]1cccc([C@@H]2CCCN2C)c1 | – | 3940 | > 100000 | – | 27 | – | – | – | 15300 | 90 | – | – |
| CCCCCCCCCCCC[n+]1cccc([C@@H]2CCCN2C)c1 | – | 1410 | 83000 | – | 9 | – | – | – | 500 | – | – | Ki [12]: 0.14 nM; Activity (Rattus norvegicus [16]): Active |
| CN1CCC[C@H]1c1ccc[n+](CCCCCCNCC2CCc3ccc(O)cc3O2)c1 (mixture of isomers) | 97 | 109 | 13000 | 15.7 | 15 | inactive | inactive | 65 | 6900 | 800 | inactive | Activity [17]: 40% |
| CCCCCC[n+]1cccc([C@@H]2CCCN2C)c1 | – | 4710 | > 100000 | – | 18 | – | – | – | 8900 | 300 | inactive | – |
